Assay results reported in PMC6154319, “Intestinal Transport Characteristics and Metabolism of C-Glucosyl Dihydrochalcone, Aspalathin” (Molecules : A Journal of Synthetic Chemistry and Natural …, 2017).

How the values were obtained:
[1] = system: Caco-2 cells; assay: Cytotoxicity of aspalathin on Caco-2 cells (Vialight plus kit); format: cell-based, human; conditions: HBSS buffer pH 6.0, apical side; 2 h exposure
Excerpt: Supplementary material for:
Intestinal Transport Characteristics and Metabolism of C-Glucosyl Dihydrochalcone, Aspalathin
Sandra Bowles 1,*, Elizabeth Joubert 2,3, Dalene de Beer 2,3, Johan Louw 1,4, Christel Brunschwig 5,6,7, Mathew Njoroge 5,6,7, Nina Lawrence 6, Lubbe Wiesner 7, Kelly Chibale 5,6,8,9, and Christo […]
1 Biomedical Research and Innovation Platform, South African Medical Research Council, Tygerberg, Cape Town, 7130, South Africa; johan.louw@mrc.ac.za (J.L.); christo.muller@mrc.ac.za (C.M.) 2 Plant Bioactives Group, Post-Harvest and Wine Technology Division, Agricultural Research Council, Infruitec-Nietvoorbij, Stellenbosch 7600, South Africa; JoubertL@arc.agric.za (E.J.); DBeerD@arc.agric.za […]
3 Department of Food Science, Stellenbosch University, Stellenbosch 7600, South Africa 4 Department of Biochemistry and Microbiology, University of Zululand, Kwa-Dlangezwa 3886, South […]
Caco-2 cells was assessed by the VialightTM plus kit. Caco-2 cells were seeded at a density of 4 x 10^4 cells/cm2 into white clear bottomed 96-well plates and cytotoxicity was assessed according to the manufacturer’s recommendation after 12–13 days. […]

[2] = Acute mouse study, metabolite identification in blood and urine by LC-MS/MS; format: in vivo; conditions: oral 50 mg/kg
Experimental: An acute mouse study was performed under ethical approval from the Ethics Committee for Research on Animals (ECRA) of the South African Medical Research Council (Ref:07/13). Three 8-week old male C57.BKS mice, obtained from the Primate Unit of the South African Medical Research Council (Tygerberg, South Africa), were housed individually in polycarbonate cages with wired lids and kept in a controlled environment of 23–24 °C, 50% humidity, and a 12 h light/dark cycle. Prior to the study, urine was collected from the fasting mice overnight in a metabolic cage. Baseline fasted blood was collected via tail snip into a heparin tube, snap frozen in liquid nitrogen, and stored at −80 °C. Each mouse received a single dose of synthetic aspalathin (50 mg/kg body weight) dissolved in phosphate-buffered saline (PBS) (5 mg/mL) via orogastric gavage. Blood samples were collected and handled as described for fasting at time 0 (pre-gavage), and 1, 2, 4, 6, and 8 h post-gavage. All the samples were collected into the same heparin tube and kept on ice during the experiment. Urine was collected over the 8-h post-gavage monitoring period and the samples were stored at −80 °C until analysis.
The frozen whole blood samples, as well as the samples incubated with microsomes and controls, were thawed, extracted by protein precipitation using 0.1% formic acid (FA) in acetonitrile, centrifuged and filtered through 0.22 µm polyvinylidene difluoride (PVDF) filters (Merck Millipore, Frankfurter Straße, Darmstadt, Germany). Frozen whole urine samples were thawed and diluted 5 times in 0.1% aqueous FA. Samples were analysed by LC-MS/MS on an Agilent 1200 Rapid Resolution HPLC system (600 bar, Agilent Technologies) coupled to a 4000 QTRAP® (AB Sciex, Framingham, MA, USA) equipped with a Turbo V™ […]. Filtered samples (10 μL), stored on a sample tray maintained at 8 °C, were injected on a Gemini C6-Phenyl column (150 × 2.0 mm, 3 µm particles) (Phenomenex, Santa Clara, CA, USA) at 40 °C. […]

[3] = Lipophilicity, LogD7.4 (n-octanol / phosphate buffer shake flask); format: physicochemical; conditions: phosphate buffer pH 7.4 / n-octanol
Experimental: For determination of the lipophilicity of aspalathin, a 10 mM stock solution prepared in DMSO was used to spike (100 µM) a 1:1 mixture of phosphate buffer (pH 7.4) and n-octanol. The solutions were shaken vigorously (1500 rpm) on an orbital shaker for 4 h at room temperature. Thereafter, the samples were centrifuged (3500 rpm, 2700× g) in order to fully separate the two immiscible fluids. The samples analysed using HPLC-DAD (Agilent 1200 Rapid Resolution HPLC) and the partition coefficient, LogD7.4 calculated.

## O=C(CCc1ccc(O)c(O)c1)c1c(O)cc(O)c([C@@H]2O[C@H](CO)[C@@H](O)[C@H](O)[C@H]2O)c1O [Aspalathin]
[1]
  maximum concentration not cytotoxic to Caco-2 cells (>80% viability): 150 µM
[2]; blood 1-8 h post-gavage
  detection of aspalathin and metabolites in blood: No aspalathin, nor any of its metabolites, could be detected
[2]; urine over 8 h
  number of aspalathin metabolites detected in the urine: 13
[3]
  Log D at pH 7.4: 0.13
